{
  "source": "patent US9867798B2",
  "about": "“Ladostigil therapy for immunomodulation” (priority 2012, dated 2018)",
  "key": {"[1]": {"test_system": "LPS-induced TNF-α, IL-1β and IL-6 in spleen", "test": "Cytokines in spleen of mice injected with LPS (Example 4)", "format": "in vivo, Balb/c mice", "experimental": "Male Balb/c mice (aged 6-7 weeks, weighing 25-30 gm) were given ladostigil 10 mg/kg by gavage or 1 ml/kg saline followed 15 min later by an intra-peritoneal (i.p.) injection of LPS (10 mg/kg). For measurement of cytokine levels in the spleen and blood the mice were sacrificed 4 h after drug administration, blood collected in heparinized tubes and centrifuged to obtain plasma and the spleen was rapidly removed and weighed. Plasma and spleen were frozen in liquid nitrogen and stored at −80° C. until use.\nFor measurement of cytokine levels the tissue was diluted in PBS containing 0.8% NaCl, 0.144% NaHPO4, 0.024% KH2PO4 and protease inhibitor cocktail (Sigma Israel, P8340) and homogenized in an Ultra-TURRAX® homogenizer at a speed of 24,000 rpm, centrifuged at 14000 g for 15 min at 4° C. Cytokines were detected in the supernatant by using ELISA kits for cytokines IL-1β, IL-6, and TNF-α(Biolegend) following the manufacturer's protocol. Each experiment was performed 4 times with 6 replicate measures in each experiment. Protein concentration in each sample was determined with Bradford reagent (Bio-RAD, 500-0006)."}, "[2]": {"test_system": "mice with DSS-induced colitis", "test": "Acute colitis induced by DSS in mice: body weight, stool, bleeding, DAI, colon length", "format": "in vivo, BALB/c OlaHsd mice", "experimental": "(§1) BALB/c OlaHsd male mice aged 8-9 weeks and weighing 25-30 g were purchased from Harlan (Jerusalem, Israel) and housed in standard cages of up to 5 per cage in the pathogen free Animal Facility of the Institute for Drug Research. All experiments were performed in accordance with the Principles of Laboratory Animal Care (NIH publication #85-23, revised 1985) protocols MD-09-12197-4. Acute colitis was induced in mice by administration of 5% DSS solution (M.Wt.=[…], MP Biomedicals, LLC, Solon, Ohio, USA) in water for 8 days. The DSS solution was freshly prepared every day. Mice were provided with food and water or DSS solution ad libitum during the experiment. They were divided into groups of 10 as follows: Vehicle control group: mice drank water and were given water (1 ml/100 gm) once daily by gavage for 8 days; Drug control group: mice drank water and were given ladostigil (10 mg/kg) by gavage once daily for 8 days. DSS untreated group: mice drank 5% DSS for 7 days and water on the 8th day and were given water (1 ml/100 g) once daily by gavage for 8 days. Drug treated group: mice drank 5% DSS followed by water as above and were given ladostigil (5 or 10 mg/kg) by gavage once daily for 8 days. The volume of 5% DSS solution consumed was measured for each group of mice and the average volume/mouse was calculated. On the eighth day, the mice were anesthetized by CO2 and sacrificed by cervical dislocation 2 h after the last dose of ladostigil. Samples of colon and spleen were taken for measurement of cytokines MPO, cytokines and ChE activity.\nBody weight, stool consistency and the presence of blood in the stools was recorded daily for each mouse. […] The score ranged between 0-4 for all three parameters and was composed as follows: Weight loss: none=0, 1-5%=1, 5-10%=2, 10-20%=3, >20%=4. Percent of weight loss on days 7 and 8 relative to the first day was calculated for all the groups. […] Bleeding: none=0, hemoccult=2, gross bleeding=4. The maximum DAI score was 4 based on a combination of scores of weight loss (relative to that on the first day of the experiment), stool consistency and bleeding, divided by 3. After sacrifice the length of the colon segment from the cecum to the rectum was measured."}, "AChE": {"test_system": "AChE", "conditions": "51 and 70.1 mg/kg/day, doses effective in ameliorating EAE; cited from earlier work"}, "[3]": {"test_system": "cholinesterase (AChE and BuChE)", "test": "Cholinesterase activity in spleen and colon of mice drinking DSS (Ellman)", "format": "in vivo", "conditions": "for ChE activity colon / ChE activity spleen: DSS 5%, 8 days", "experimental": "as §1\nIn experiments on the effect of chronic treatment with ladostigil on ChE activity in mice drinking DSS, the spleen was rapidly removed as described above, together with a colon segment of about 0.5 cm in length taken from the proximal area. Spleen and colon segments were washed in cold phosphate buffered saline (PBS) before they were frozen at −80° C. For assay, the tissue was unfrozen and weighed and PBS was added to each tissue at a ratio of 1 mg tissue to 1 ml. Tissues were homogenized at a speed of 24,000 rpm in cold phosphate buffer pH 7 containing 0.1% Triton and centrifuged at 14000 rpm. Aliquots of plasma and the supernatant from the spleen and colon were incubated with acetylthiocholine and dinitro benzoic acid in phosphate buffer pH 7 and the rate of development of the yellow color was measured as described by Ellman et al, (1961). Percent inhibition of ChE activity was calculated by comparison with that of control mice given water by gavage. Protein concentration was determined by means of by Pierce BCA Protein Assay Kit (Thermo Scientific, USA) according to the manufacturer's instructions. It is noted, that ChE activity in the colon and spleen of mice is attributed mainly to that of AChE while that in mouse plasma is mainly attributable to BuChE."}, "[4]": {"test_system": "cholinesterase (mostly BuChE)", "test": "ChE inhibition in gerbil plasma (Ellman)", "format": "in vivo, Psammomys obesus", "conditions": "17 mg/kg/day, three hours after the last gavage, vs same gerbil before treatment", "experimental": "Male Psammomys obesus gerbils aged 3.5-4 months were given a high-energy diet consisting of 938.5 g/Kg version of 2018SC+F Harlan Tekled Ltd., USA, supplemented with soybean oil to a final fat concentration of 6%. After one week on the diet, blood was taken for measurement of glucose and ChE activity. Half of the animals were given ladostigil (17 mg/kg/day) by gavage while the remainder received tap water by the same route. Blood was taken from the tail once weekly for measurement of glucose as described in Kalman R., et al, (2001). Lab Anim. 35:346-352. After three weeks of treatment the animals they were deeply anesthetized, blood was taken by cardiac puncture for measurement of ChE activity, glucose and insulin levels and the pancreas removed for section and staining with haematoxylin and eosin and the number of islets counted. Blood glucose of 11 animals had reached values exceeding 200 mg/dL after one week on the high energy diet and the average value for the whole group was 300±27 mg/dL. […] It is noted, that cholinesterase activity in plasma of Psammomys obesus is mostly mediated by butyrylcholinesterase (BuChE) rather than by AChE."}, "[5]": {"conditions": "10 mg/kg by gavage + LPS 10 mg/kg i.p., four hours"}},
  "data": [
    {"smiles": "C#CCN[C@@H]1CCc2ccc(OC(=O)N(C)CC)cc21", "note": "[Ladostigil, R(+)-6-(N-methyl, N-ethyl-carbamoyloxy)-N′-propargyl-1-aminoindan]", "values": [
      {"measurement": "Reduction of IL-1β levels in spleen", "setting": "[1]; 10 mg/kg + LPS, Example 4", "value": 28.1, "unit": "%"},
      {"measurement": "Reduction of IL-6 levels in spleen", "setting": "[1]; 10 mg/kg + LPS, Example 4", "value": 46.7, "unit": "%"},
      {"measurement": "Reduction of TNF-α levels in spleen", "setting": "[1]; 10 mg/kg + LPS, Example 4", "value": 49.6, "unit": "%"},
      {"measurement": "IL-1β in spleen", "setting": "[1]; [5]", "value": "1.37 ± 0.04", "unit": "ng/mg protein"},
      {"measurement": "IL-6 in spleen", "setting": "[1]; [5]", "value": "179 ± 20", "unit": "pg/mg protein"},
      {"measurement": "TNF-α in spleen", "setting": "[1]; [5]", "value": "8.3 ± 0.9", "unit": "pg/mg protein"},
      {"measurement": "Reduction of elevation of pro-inflammatory cytokines in the spleen", "setting": "[1]; oral dose prior to LPS, Example 4 conclusion", "value": "28-50%"},
      {"measurement": "Decrease in colon length and signs of hyperemia and inflammation", "setting": "[2]; 5% DSS, 5 and 10 mg/kg, untreated decrease >30%", "value": "significantly less"},
      {"measurement": "Reduction of DSS-induced weight loss", "setting": "[2]; 5% DSS, both doses (5 and 10 mg/kg), untreated loss 15%", "value": "~50", "unit": "%"},
      {"measurement": "Diarrhea", "setting": "[2]; 5% DSS, day 7, both doses (5 and 10 mg/kg)", "value": "significantly decreased"},
      {"measurement": "Bleeding", "setting": "[2]; 5% DSS, day 8, 5 mg/kg", "value": "significantly decreased"},
      {"measurement": "Disease activity index (DAI)", "setting": "[2]; 5% DSS, days 7 and 8, drug treated groups vs DSS-water, p<0.01", "value": "significantly different from that of the group drinking DSS given water"},
      {"measurement": "Body weight increase during 8 days", "setting": "[2]; mice receiving 5 or 10 mg/kg by gavage, no DSS", "value": "2-3%"},
      {"measurement": "Inhibition of AChE in blood", "setting": "AChE", "value": "60-65%"},
      {"measurement": "Inhibition of AChE in brain", "setting": "AChE", "value": "47-52%"},
      {"measurement": "Inhibition of ChE in the colon", "setting": "[3]; 5 or 10 mg/kg", "value": "Neither dose of ladostigil caused any significant inhibition"},
      {"measurement": "ChE activity colon", "setting": "[3]; 5 mg/kg orally once daily", "value": "18.5 ± 1.4 μmoles of acetylthiocholine hydrolyzed/min/mg protein"},
      {"measurement": "ChE activity spleen", "setting": "[3]; 5 mg/kg orally once daily", "value": "10.8 ± 0.6 μmoles of acetylthiocholine hydrolyzed/min/mg protein"},
      {"measurement": "ChE activity colon", "setting": "[3]; 10 mg/kg orally once daily", "value": "16.7 ± 1.2 μmoles of acetylthiocholine hydrolyzed/min/mg protein"},
      {"measurement": "ChE activity spleen", "setting": "[3]; 10 mg/kg orally once daily", "value": "10.2 ± 0.7 μmoles of acetylthiocholine hydrolyzed/min/mg protein"},
      {"measurement": "ChE inhibition in plasma", "setting": "[4]", "value": "50±3", "unit": "%"}
    ]}
  ]
}
